In brackets after ≈: the same amount, converted by molar mass. Where two headings read alike, the source gives them in different places.
Tested on: M. tuberculosis strains
Assay: Minimum Inhibitory Concentration (MIC) against M. tuberculosis strains, resazurin microtiter plate assay
Format: cell-based, Mycobacterium tuberculosis
Settings: Mycobacterium tuberculosis
[1] = Table 1, C2 SAR with chlorophenyl, Middlebrook 7H9, 37° C. six days, resazurin fluorescence after 48 hours, read-out: MIC90
[2] = Table 3, C4 SAR, Middlebrook 7H9, 37° C. six days, resazurin fluorescence after 48 hours, read-out: MIC90
[3] = Table 1A, C2 SAR with fluorophenyl, Middlebrook 7H9, 37° C. six days, resazurin fluorescence after 48 hours, read-out: MIC90

| SMILES | MIC90 [1] | other results |
| --- | --- | --- |
| Cc1cc2nc(C(=O)N[C@@H]3CNC[C@@H]3F)cc(-c3ccnn3C)c2c(C)c1-c1ccncc1 (racemic) [Compound 105, N-[(3R,4S and 3S,4R)-4-fluoropyrrolidin-3-yl]-5,7-dimethyl-4-(2-methylpyrazol-3-yl)-6-(4-pyridyl)quinoline-2-carboxamide] |  | MIC90 (Table 6, Middlebrook 7H9, 37° C. six days, resazurin fluorescence after 48 hours, read-out: MIC90): 3 µM (≈ 1.33 µg/mL) |
| Cc1cc2nccc(-c3ccccc3Cl)c2c(C)c1-c1ccncc1 [Compound 1] | 5 µM (≈ 1.72 µg/mL) |  |
| Cc1cc2nc(CO)cc(-c3ccccc3Cl)c2c(C)c1-c1ccncc1 [Compound 3] | 3.75 µM (≈ 1.41 µg/mL) |  |
| Cc1cc2nc(C(C)(C)O)cc(-c3ccccc3Cl)c2c(C)c1-c1ccncc1 [Compound 4] | > 40 µM |  |
| Cc1cc2nc(CN(C)C)cc(-c3ccccc3Cl)c2c(C)c1-c1ccncc1 [Compound 5] | 10 µM (≈ 4.02 µg/mL) |  |
| Cc1cc2nc(CNCCO)cc(-c3ccccc3Cl)c2c(C)c1-c1ccncc1 [Compound 6] | 5 µM (≈ 2.09 µg/mL) |  |
| Cc1cc2nc(N)cc(-c3ccccc3Cl)c2c(C)c1-c1ccncc1 [Compound 7] | 10 µM (≈ 3.6 µg/mL) |  |
| CNc1cc(-c2ccccc2Cl)c2c(C)c(-c3ccncc3)c(C)cc2n1 [Compound 8] | 6 µM (≈ 2.24 µg/mL) |  |
| Cc1cc2nc(NCCO)cc(-c3ccccc3Cl)c2c(C)c1-c1ccncc1 [Compound 9] | 3 µM (≈ 1.21 µg/mL) |  |
| Cc1cc2nc(CCC(=O)N(C)C)cc(-c3ccccc3Cl)c2c(C)c1-c1ccncc1 [Compound 10] | 20 µM (≈ 8.88 µg/mL) |  |
| CNS(=O)(=O)c1cc(-c2ccccc2Cl)c2c(C)c(-c3ccncc3)c(C)cc2n1 [Compound 11] | 10 µM (≈ 4.38 µg/mL) |  |
| Cc1cc2nc(C(N)=O)cc(-c3ccccc3Cl)c2c(C)c1-c1ccncc1 [Compound 12] | 1.25 µM (≈ 0.485 µg/mL) |  |
| CNC(=O)c1cc(-c2ccccc2Cl)c2c(C)c(-c3ccncc3)c(C)cc2n1 [Compound 13] | 0.8 µM (≈ 0.322 µg/mL) | MIC90 [2]: 0.8 µM (≈ 0.322 µg/mL) |
| Cc1cc2nc(C(=O)NC3CC3)cc(-c3ccccc3Cl)c2c(C)c1-c1ccncc1 [Compound 14] | 1.9 µM (≈ 0.813 µg/mL) |  |
| Cc1cc2nc(C(=O)NCCO)cc(-c3ccccc3Cl)c2c(C)c1-c1ccncc1 [Compound 15] | 0.3 µM (≈ 0.13 µg/mL) |  |
| Cc1cc2nc(C(=O)NCCN(C)C)cc(-c3ccccc3Cl)c2c(C)c1-c1ccncc1 [Compound 16] | 0.3 µM (≈ 0.138 µg/mL) |  |
| Cc1cc2nc(C(=O)NO)cc(-c3ccccc3Cl)c2c(C)c1-c1ccncc1 [Compound 17] | 10 µM (≈ 4.04 µg/mL) |  |
| Cc1cc2nc(C(=O)N3CCCC3)cc(-c3ccccc3Cl)c2c(C)c1-c1ccncc1 [Compound 19] | 2.5 µM (≈ 1.1 µg/mL) |  |

| SMILES | MIC90 [1] | other results |
| --- | --- | --- |
| Cc1cc2nc(C(=O)NS(=O)(=O)C3CC3)cc(-c3ccccc3Cl)c2c(C)c1-c1ccncc1 [Compound 20] | 2.5 µM (≈ 1.23 µg/mL) |  |
| Cc1cc2nc(C(=O)NCC3CCCS(=O)(=O)C3)cc(-c3ccccc3Cl)c2c(C)c1-c1ccncc1 (stereo not drawn) [Compound 21] | 0.8 µM (≈ 0.427 µg/mL) |  |
| Cc1cc2nc(C(=O)NCC(O)CO)cc(-c3ccccc3Cl)c2c(C)c1-c1ccncc1 (stereo not drawn) [Compound 22] | 0.4 µM (≈ 0.185 µg/mL) |  |
| Cc1cc2nc(C(=O)N[C@H]3CCCC[C@@H]3O)cc(-c3ccccc3Cl)c2c(C)c1-c1ccncc1 [Compound 23] | 1.25 µM (≈ 0.608 µg/mL) |  |
| Cc1cc2nc(C(=O)N[C@H]3CCC[C@@H]3O)cc(-c3ccccc3Cl)c2c(C)c1-c1ccncc1 [Compound 24] | 0.6 µM (≈ 0.283 µg/mL) |  |
| Cc1cc2nc(C(=O)NC3CCN(C)C3)cc(-c3ccccc3Cl)c2c(C)c1-c1ccncc1 (stereo not drawn) [Compound 25] | 1.25 µM (≈ 0.589 µg/mL) |  |
| Cc1cc2nc(C(=O)NC(C)CCO)cc(-c3ccccc3Cl)c2c(C)c1-c1ccncc1 (stereo not drawn) [Compound 26] | 1.25 µM (≈ 0.575 µg/mL) |  |
| Cc1cc2nc(C(=O)NCC(N)=O)cc(-c3ccccc3Cl)c2c(C)c1-c1ccncc1 [Compound 27] | 0.8 µM (≈ 0.356 µg/mL) |  |
| Cc1cc2nc(C(=O)NCC(C)(C)C(=O)O)cc(-c3ccccc3Cl)c2c(C)c1-c1ccncc1 [Compound 28] | 80 µM (≈ 39 µg/mL) |  |
| Cc1cc2nc(C(=O)N(C)C)cc(-c3ccccc3Cl)c2c(C)c1-c1ccncc1 [Compound 29] | 20 µM (≈ 8.32 µg/mL) |  |
| Cc1cc2nc(C(=O)N3CCNCC3)cc(-c3ccccc3Cl)c2c(C)c1-c1ccncc1 [Compound 30] | 10 µM (≈ 4.57 µg/mL) |  |
| Cc1cc2nc(C(=O)NCCF)cc(-c3ccccc3Cl)c2c(C)c1-c1ccncc1 [Compound 31] |  | MIC90: 1.25 µM (≈ 0.542 µg/mL) |
| Cc1cc2nc(C(=O)N3CCOCC3)cc(-c3ccccc3Cl)c2c(C)c1-c1ccncc1 [Compound 32] | 15 µM (≈ 6.87 µg/mL) |  |
| Cc1cc2nc(C(=O)NC3CCN(C)CC3)cc(-c3ccccc3Cl)c2c(C)c1-c1ccncc1 [Compound 33] | 0.8 µM (≈ 0.388 µg/mL) |  |
| Cc1cc2nc(C(=O)NC(CO)CO)cc(-c3ccccc3Cl)c2c(C)c1-c1ccncc1 [Compound 34] | 1.9 µM (≈ 0.878 µg/mL) |  |
| Cc1cc2nc(C(=O)NCC(C)(C)CO)cc(-c3ccccc3Cl)c2c(C)c1-c1ccncc1 [Compound 35] | 1.6 µM (≈ 0.758 µg/mL) |  |
| Cc1cc2nccc(-c3ccccc3F)c2c(C)c1-c1ccncc1 [Compound 36] |  | MIC90 [3]: 5 µM (≈ 1.64 µg/mL) |
| CNC(=O)c1cc(-c2ccccc2F)c2c(C)c(-c3ccncc3)c(C)cc2n1 [Compound 37] |  | MIC90 [3]: 1.25 µM (≈ 0.482 µg/mL); MIC90 [2]: 0.6 µM (≈ 0.231 µg/mL); MIC90 (Table 4A, C6 SAR with amide, Middlebrook 7H9, 37° C. six days, resazurin fluorescence after 48 hours, read-out: MIC90): 1.25 µM (≈ 0.482 µg/mL) |

Source: patent US10745356B2, “Compositions and methods for treating tuberculosis” (priority 2015, dated 2020)
